Results on two molecules are retold here after ChEMBL document CHEMBL3045381, “Antiproliferative activity of pentadeca-(8E, 13Z) dien-11-yn-2-one and (E)-1,8-pentadecadiene from Echinacea pallida (Nutt.) Nutt. roots” (Med Chem Res, 2013).

The source made the active and inactive calls. The rule behind the calls is not given here.

Holding throughout (type): functional, cell-based
The test system of test [1] is HeLa. As to the kind of experiment: Antiproliferative activity against Homo sapiens (human) HeLa cells at 5 to 40 ug/ml after 24 hr by BRdU incorporation assay.
Test [2] concerns C6. Kind of test: Antiproliferative activity against Rattus norvegicus (rat) C6 cells at 5 to 75 ug/ml after 24 hr by BRdU incorporation assay.
The subject of test [3] is HeLa. Kind of test: Antiproliferative activity against Homo sapiens (human) HeLa cells at 5 to 100 ug/ml after 24 hr by BRdU incorporation assay.
Test [4] relates to C6. As to the kind of experiment: Antiproliferative activity against Rattus norvegicus (rat) C6 cells at 5 to 100 ug/ml after 24 hr by BRdU incorporation assay.

Turning to `C/C=C\C#CC/C=C\CCCCCC(C)=O`, the result in the test with HeLa [1] and in the test on C6 [2] was Active.
Turning to `C=CCCCCC/C=C/CCCCCC`, the result in the test on HeLa [3] and in the test on C6 [4] was inactive.
